Measurements taken from patent US8735425B2, “Tetrahydroisoquinoline derivative” (Daiichi Sankyo Company, Limited, priority 2008, dated 2014).

Legend:
Male C57BL/6N mice = test: Triglyceride absorption suppression after fat loading (in vivo DGAT1 inhibitory effect); conditions: Mus musculus, po; dose of 10 mg/kg or lower, orally administered, mice fasted overnight, plasma triglyceride after fat loading; read-out: Triglyceride absorption suppressive activity
Method in brief: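 Overnight-fasted male C57BL/6N mice dosed orally with compound (1 to 10 mg/kg in 0.5% methylcellulose), then given Pluronic-F127 1 g/kg i.p. and an oral 20% Intralipid load. Plasma triglyceride measured 1 to 4 h later. Absorption suppression (%) calculated against water-loaded and fat-loaded vehicle groups.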

DGAT1 enzyme = target: T1, DGAT1 enzyme (Homo sapiens, UniProt O75907); test: DGAT1 inhibitory activity test; assay type: biochemical; conditions: test compound concentration of 0.05 μg/ml; read-out: Inhibitory Rate
T1 construct: made in house
T1 sequence (O75907 1-488): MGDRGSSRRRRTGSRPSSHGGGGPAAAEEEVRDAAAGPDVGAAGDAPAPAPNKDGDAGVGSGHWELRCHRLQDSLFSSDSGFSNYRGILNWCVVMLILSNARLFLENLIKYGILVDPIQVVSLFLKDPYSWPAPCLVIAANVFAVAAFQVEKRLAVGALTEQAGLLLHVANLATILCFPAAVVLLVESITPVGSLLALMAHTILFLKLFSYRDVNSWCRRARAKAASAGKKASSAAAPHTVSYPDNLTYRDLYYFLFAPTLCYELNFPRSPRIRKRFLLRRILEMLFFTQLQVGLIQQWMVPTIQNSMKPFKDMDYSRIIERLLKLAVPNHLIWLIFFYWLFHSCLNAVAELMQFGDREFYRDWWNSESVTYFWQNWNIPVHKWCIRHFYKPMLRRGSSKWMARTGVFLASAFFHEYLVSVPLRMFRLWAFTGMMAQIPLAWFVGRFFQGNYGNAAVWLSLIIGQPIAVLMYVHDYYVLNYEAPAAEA
Method in brief: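 Reaction at 23° C for 30 min in 175 mM Tris-HCl pH 8.0, 8 mM MgCl2, 1 mg/ml BSA, 0.5% Triton X-100 with 0.3 mM 1,2-dioleoyl-sn-glycerol and 10 μM [14C]-oleoyl-CoA. Triglyceride extracted into heptane, separated by TLC, radioactivity quantified; % inhibition versus vehicle control, 0-min background subtracted.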

Row | SMILES | inhibition in vivo at up to 10 mg/kg (Male C57BL/6N mice) [%] | inhibition at 0.05 µg/mL (DGAT1 enzyme) [%]
1 | Cc1cnc(NC(=O)Nc2ccc3c(c2)CCN(C(=O)O[C@H]2CC[C@H](CC(=O)O)CC2)C3)s1 [Example 95, trans-6-[3-(5-methyl-thiazol-2-yl)-ureido]-3,4-dihydro-1H-isoquinoline-2-carboxylic acid 4-carboxymethyl-cyclohexyl ester] | ≥ 60 | ≥ 50
2 | Cc1cc(NC(=O)Nc2ccc3c(c2)CCN(C(=O)O[C@H]2CC[C@H](CC(=O)O)CC2)C3)no1 [Example 97, trans-6-[3-(5-methyl-isoxazol-3-yl)-ureido]-3,4-dihydro-1H-isoquinoline-2-carboxylic acid 4-carboxymethyl-cyclohexyl ester] | ≥ 60 | ≥ 50
3 | C[C@@H]1C[C@H](CC(=O)O)CC[C@H]1OC(=O)N1CCc2cc(NC(=O)Nc3cccc(OC(F)(F)F)c3)ccc2C1 [Example 102, 6-[3-(3-trifluoromethoxy-phenyl)-ureido]-3,4-dihydro-1H-isoquinoline-2-carboxylic acidt-4-carboxymethyl-t-2-methyl-r-1-cyclohexyl ester] | ≥ 60 | ≥ 50
4 | CC(C(=O)O)[C@H]1CC[C@H](OC(=O)N2CCc3cc(NC(=O)Nc4ccccc4F)ccc3C2)CC1 (stereo partly drawn) [Example 103, trans-6-[3-(2-fluoro-phenyl)-ureido]-3,4-dihydro-1H-isoquinoline-2-carboxylic acid 4-(1-carboxy-ethyl)-cyclohexyl ester] | ≥ 60 | ≥ 50
5 | COc1cccc(NC(=O)Nc2ccc3c(c2)CCN(C(=O)O[C@H]2CC[C@H](C(C)C(=O)O)CC2)C3)c1 (stereo partly drawn) [Example 104, trans-6-[3-(3-methoxy-phenyl)-ureido]-3,4-dihydro-1H-isoquinoline-2-carboxylic acid 4-(1-carboxy-ethyl)-cyclohexyl ester] | ≥ 60 | ≥ 50
6 | CC(C(=O)O)[C@H]1CC[C@H](OC(=O)N2CCc3cc(NC(=O)Nc4ccccc4)ccc3C2)CC1 (stereo partly drawn) [Example 105, trans-6-(3-phenyl-ureido)-3,4-dihydro-1H-isoquinoline-2-carboxylic acid 4-(1-carboxy-ethyl)-cyclohexyl ester] | ≥ 60 | ≥ 50
7 | CC(C(=O)O)C1CCC(CC(=O)N2CCc3cc(NC(=O)Nc4ccccc4F)ccc3C2)CC1 (stereo not shown) [Example 107, 2-[4-(2-{6-[3-(2-fluoro-phenyl)-ureido]-3,4-dihydro-1H-isoquinolin-2-yl}-2-oxo-ethyl)-cyclohexyl]-propionic acid] | ≥ 60 | ≥ 50
8 | CN(C(=O)N1CCc2cc(NC(=O)Nc3ccccc3F)ccc2C1)C1CCC(CC(=O)O)CC1 (stereo not shown) [Example 108, [4-({6-[3-(2-fluoro-phenyl)-ureido]-3,4-dihydro-1H-isoquinoline-2-carbonyl}-methyl-amino)-cyclohexyl]-acetic acid] | ≥ 60 | ≥ 50
